ChEMBL document CHEMBL1201862, “PubChem BioAssay data set” (2004)
The source made the active and inactive calls.

How the values were obtained:
[1] = biological target: G-protein coupled receptor 55 (Homo sapiens, UniProt Q9Y2T6); assay: GPR55 antagonists blocking LPI-driven arrestin recruitment, primary screen, imaging, U2OS, beta-arrestin-GFP, LPI agonist (AID 2013); assay type: functional;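 also: antagonist potency measured as reduced agonist-driven arrestin aggregation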
[2] = biological target: Beta-galactosidase (Escherichia coli, UniProt Q8VNN2); assay: beta-galactosidase enzyme inhibitors and activators, dose response, artefact control for CCR6 antagonist project, biochemical, E. coli enzyme, set 3 (AID 504712); assay type: functional
[3] = biological target: T1, Ubiquitin-conjugating enzyme E2 N (Homo sapiens, UniProt P61088); assay type: functional
T1 sequence (P61088 whole entry): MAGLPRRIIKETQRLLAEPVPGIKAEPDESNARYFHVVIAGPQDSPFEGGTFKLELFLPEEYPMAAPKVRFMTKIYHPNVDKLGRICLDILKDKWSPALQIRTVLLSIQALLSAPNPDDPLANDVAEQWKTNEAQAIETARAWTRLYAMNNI

[4] = biological target: T1, Ubiquitin-conjugating enzyme E2 N; assay type: functional; remark: listed apart in the source
[5] = biological target: T2, Bcl-2-related protein A1 (Mus musculus, UniProt Q07440); assay type: functional;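 also: confirmatory dose–response counterscreen on Bfl-1, used to check hits from a UBC13 polyubiquitin inhibitor campaign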
T2 sequence (Q07440 whole entry): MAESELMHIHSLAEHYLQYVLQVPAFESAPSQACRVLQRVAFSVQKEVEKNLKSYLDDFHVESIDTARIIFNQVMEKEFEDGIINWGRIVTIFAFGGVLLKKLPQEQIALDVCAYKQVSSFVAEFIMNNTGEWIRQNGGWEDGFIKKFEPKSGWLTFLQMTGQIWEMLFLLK

[6] = biological target: Large T antigen (Simian virus 40, UniProt P03070); assay type: functional, Betapolyomavirus macacae;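 also: Confirmatory-stage PubChem screen for compounds that inhibit SV40 T antigen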
[7] = biological target: T3, Aminopeptidase N (Plasmodium falciparum FcB1/Columbia, UniProt O96935); assay: P. falciparum M1AAP inhibitors, biochemical, fluorogenic H-Leu-NHMec substrate, 1536-well (AID 1445); parameters: species or system Plasmodium falciparum 3D7, 3D7
T3 sequence (O96935 whole entry): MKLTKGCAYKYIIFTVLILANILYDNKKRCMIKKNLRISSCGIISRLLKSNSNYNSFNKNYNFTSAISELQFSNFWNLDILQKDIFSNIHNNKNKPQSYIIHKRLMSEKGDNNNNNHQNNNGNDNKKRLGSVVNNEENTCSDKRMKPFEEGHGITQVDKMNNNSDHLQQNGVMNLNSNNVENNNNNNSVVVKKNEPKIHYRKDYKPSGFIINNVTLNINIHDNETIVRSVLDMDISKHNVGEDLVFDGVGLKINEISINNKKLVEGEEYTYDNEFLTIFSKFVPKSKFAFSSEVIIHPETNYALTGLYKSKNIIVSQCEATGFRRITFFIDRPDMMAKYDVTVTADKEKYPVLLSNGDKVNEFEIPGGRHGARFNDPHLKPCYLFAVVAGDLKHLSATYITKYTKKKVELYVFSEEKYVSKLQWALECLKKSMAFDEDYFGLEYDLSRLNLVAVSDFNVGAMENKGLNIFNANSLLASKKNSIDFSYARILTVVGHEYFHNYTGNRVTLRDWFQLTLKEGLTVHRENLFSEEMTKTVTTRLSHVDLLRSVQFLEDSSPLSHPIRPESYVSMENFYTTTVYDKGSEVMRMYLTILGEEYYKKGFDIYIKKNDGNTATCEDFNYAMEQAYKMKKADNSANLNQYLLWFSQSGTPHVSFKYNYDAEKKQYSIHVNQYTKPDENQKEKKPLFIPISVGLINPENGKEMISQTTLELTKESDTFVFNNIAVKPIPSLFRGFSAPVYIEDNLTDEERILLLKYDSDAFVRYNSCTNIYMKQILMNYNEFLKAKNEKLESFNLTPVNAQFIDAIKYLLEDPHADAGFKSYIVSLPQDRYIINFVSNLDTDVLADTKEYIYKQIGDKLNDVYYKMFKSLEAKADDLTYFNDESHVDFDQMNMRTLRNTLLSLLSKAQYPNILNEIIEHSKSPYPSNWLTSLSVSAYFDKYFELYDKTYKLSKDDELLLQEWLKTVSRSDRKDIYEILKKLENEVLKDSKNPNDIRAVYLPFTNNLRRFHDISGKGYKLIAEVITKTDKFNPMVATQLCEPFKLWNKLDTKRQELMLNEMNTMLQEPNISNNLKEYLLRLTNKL

[8] = biological target: T4, DNA dC->dU-editing enzyme APOBEC-3A (Homo sapiens, UniProt P31941); assay: Dose Response confirmation of small molecule APOBEC3A DNA Deaminase Inhibitors via a fluorescence-based single-stranded DNA deaminase assay. [Related pubchem assays (depositor defined):AID493011, AID493024]; assay type: functional
[9] = biological target: T5, DNA dC->dU-editing enzyme APOBEC-3G (Homo sapiens, UniProt Q9HC16); assay type: functional
[10] = biological target: T6, Alkaline phosphatase, tissue-nonspecific isozyme (Homo sapiens, UniProt P05186); assay: human TNAP enzyme inhibitors, SAR follow-up, biochemical, luminescent, dose response (AID 1056)
T6 sequence (P05186 whole entry): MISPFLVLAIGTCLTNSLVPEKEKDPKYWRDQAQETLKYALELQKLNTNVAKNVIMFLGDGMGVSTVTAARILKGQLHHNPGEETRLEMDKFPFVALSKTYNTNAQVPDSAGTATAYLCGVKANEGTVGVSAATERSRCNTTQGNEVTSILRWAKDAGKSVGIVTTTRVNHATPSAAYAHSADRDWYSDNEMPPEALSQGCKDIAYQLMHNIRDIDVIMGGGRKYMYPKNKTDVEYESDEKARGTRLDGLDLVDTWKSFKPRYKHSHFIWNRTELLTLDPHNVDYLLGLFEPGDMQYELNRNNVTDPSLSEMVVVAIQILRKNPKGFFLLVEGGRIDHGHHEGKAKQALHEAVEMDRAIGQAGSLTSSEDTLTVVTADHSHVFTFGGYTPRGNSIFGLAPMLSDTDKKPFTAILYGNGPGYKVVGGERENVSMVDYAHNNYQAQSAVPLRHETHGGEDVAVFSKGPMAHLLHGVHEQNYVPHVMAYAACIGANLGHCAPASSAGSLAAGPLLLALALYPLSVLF

[11] = biological target: Glyceraldehyde-3-phosphate dehydrogenase (Homo sapiens, UniProt P04406)
[12] = tested on: HT-1080; assay: cytotoxicity in HT1080 fibrosarcoma cells, cell-based, fluorescence readout (AID 620); assay type: functional; details: Homo sapiens
[13] = biological target: Luciferin 4-monooxygenase (Photinus pyralis, UniProt P08659); assay: Counter Screen for Luciferase-based Assay Positives. [Related pubchem assays: 620, 618, 411 ]
[14] = biological target: T7, Protein skinhead-1 (Caenorhabditis elegans, UniProt P34707); assay type: functional
T7 sequence (P34707 whole entry): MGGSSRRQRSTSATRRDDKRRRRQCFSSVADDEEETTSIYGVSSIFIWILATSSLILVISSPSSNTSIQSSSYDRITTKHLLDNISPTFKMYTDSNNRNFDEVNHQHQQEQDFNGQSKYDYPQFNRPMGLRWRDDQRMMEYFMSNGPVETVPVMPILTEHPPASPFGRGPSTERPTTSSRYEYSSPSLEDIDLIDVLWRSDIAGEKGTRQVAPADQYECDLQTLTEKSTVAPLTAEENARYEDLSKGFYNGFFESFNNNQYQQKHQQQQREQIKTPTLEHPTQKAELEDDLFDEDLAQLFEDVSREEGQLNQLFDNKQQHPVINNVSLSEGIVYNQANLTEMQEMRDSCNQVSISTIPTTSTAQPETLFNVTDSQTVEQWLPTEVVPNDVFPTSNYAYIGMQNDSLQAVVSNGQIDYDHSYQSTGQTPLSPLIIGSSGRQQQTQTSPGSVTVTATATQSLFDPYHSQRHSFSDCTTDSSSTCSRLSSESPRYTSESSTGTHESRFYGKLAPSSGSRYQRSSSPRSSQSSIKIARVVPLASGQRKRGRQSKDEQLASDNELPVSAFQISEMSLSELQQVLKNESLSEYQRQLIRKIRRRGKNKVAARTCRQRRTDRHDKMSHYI

[15] = biological target: T8, Heat shock factor protein 1 (Mus musculus, UniProt P38532); assay: HSF1 potentiators in luciferase reporter cells, confirmation, cell-based, NIH3T3, luminescence, dose retest (AID 435004); assay type: functional;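 also: stress induced by proteasome inhibitor MG132 added 30 min after compound; luciferase reporter driven by HSF1 response element in NIH3T3 cells; actives raise luminescence as potentiators of the MG132 stress response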
T8 sequence (P38532 whole entry): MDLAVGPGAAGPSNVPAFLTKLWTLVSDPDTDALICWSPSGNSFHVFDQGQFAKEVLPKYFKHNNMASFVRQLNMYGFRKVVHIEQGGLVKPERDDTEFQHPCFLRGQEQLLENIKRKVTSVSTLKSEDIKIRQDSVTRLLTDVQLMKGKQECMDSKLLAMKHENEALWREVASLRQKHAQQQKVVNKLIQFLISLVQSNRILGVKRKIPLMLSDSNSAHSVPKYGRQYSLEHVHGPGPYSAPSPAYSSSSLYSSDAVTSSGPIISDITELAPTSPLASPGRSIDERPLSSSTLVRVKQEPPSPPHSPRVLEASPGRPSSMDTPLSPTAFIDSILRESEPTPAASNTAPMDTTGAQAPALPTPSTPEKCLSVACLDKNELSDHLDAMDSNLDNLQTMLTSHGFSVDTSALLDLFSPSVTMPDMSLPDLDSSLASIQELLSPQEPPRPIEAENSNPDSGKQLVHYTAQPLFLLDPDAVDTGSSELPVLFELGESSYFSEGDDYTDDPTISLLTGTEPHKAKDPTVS

[16] = biological target: Genome polyprotein (dengue virus type 2, UniProt P29990); assay: Dengue-2 NS5 methyltransferase inhibitors, primary screen, biochemical, confirmation dose response (AID 588689); assay type: functional
[17] = inhibitors of intracellular T. cruzi replication, confirmation, NIH3T3 host cells, beta-gal luminescence (AID 2044); assay type: functional, cell-based;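 also: intracellular parasites grown in NIH/3T3 mouse fibroblasts as host cells; luminescent beta-galactosidase reporter signal from transgenic T. cruzi replicating inside host cells; inhibitors lower the luminescence signal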
[18] = cytotoxicity toward NIH3T3 fibroblasts, dose response, counter-screen, cell-based, ATP luminescence, mouse fibroblasts (AID 2010); assay type: functional;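 also: cells exposed to compound for about 90 hours before reading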
[19] = THP-1 cell cytotoxicity, dose response, cytotoxicity control for non-replicating M. tuberculosis project (AID 489025); assay type: functional
[20] = Luminescence Cell-Based Dose Response HTS to Identify Inhibitors of 5'UTR Stem-Loop Driven Prion Protein mRNA Translation in H4 Neuroglioblastoma Cells. [Related pubchem assays: 1827 (Project Summary), 1813 (Primary HTS)]; assay type: functional
[21] = inhibitors of SNCA 5'UTR-driven reporter translation, confirmation, H4 neuroglioma cells, luminescence (AID 1988); assay type: functional, cell-based
[22] = biological target: T5, DNA dC->dU-editing enzyme APOBEC-3G; assay: Dose Response confirmation of small molecule APOBEC3G DNA Deaminase Inhibitors via a fluorescence-based single-stranded DNA deaminase assay. [Related pubchem assays (depositor defined):AID493012, AID493028]; assay type: functional
[23] = biological target: T4, DNA dC->dU-editing enzyme APOBEC-3A; assay: APOBEC3A DNA deaminase inhibitors, dose response, biochemical (AID 504722); assay type: functional

T5 sequence (Q9HC16 whole entry): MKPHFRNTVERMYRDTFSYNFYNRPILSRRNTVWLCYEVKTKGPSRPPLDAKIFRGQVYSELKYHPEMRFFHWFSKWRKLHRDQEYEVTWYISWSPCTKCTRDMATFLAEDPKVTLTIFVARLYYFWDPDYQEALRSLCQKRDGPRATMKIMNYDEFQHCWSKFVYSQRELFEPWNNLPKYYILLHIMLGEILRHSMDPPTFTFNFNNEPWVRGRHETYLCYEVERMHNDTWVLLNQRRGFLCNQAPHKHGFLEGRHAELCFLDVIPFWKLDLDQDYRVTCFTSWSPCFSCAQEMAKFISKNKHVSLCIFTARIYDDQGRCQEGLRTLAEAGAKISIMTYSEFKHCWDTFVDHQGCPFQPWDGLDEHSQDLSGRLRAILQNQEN
T4 sequence (P31941 whole entry): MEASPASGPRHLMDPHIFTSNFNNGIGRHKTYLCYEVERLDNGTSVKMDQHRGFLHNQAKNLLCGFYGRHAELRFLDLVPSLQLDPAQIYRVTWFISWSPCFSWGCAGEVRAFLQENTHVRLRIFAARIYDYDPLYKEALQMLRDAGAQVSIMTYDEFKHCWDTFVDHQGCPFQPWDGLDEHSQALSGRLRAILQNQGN
Sequence of Luciferin 4-monooxygenase (P08659 whole entry): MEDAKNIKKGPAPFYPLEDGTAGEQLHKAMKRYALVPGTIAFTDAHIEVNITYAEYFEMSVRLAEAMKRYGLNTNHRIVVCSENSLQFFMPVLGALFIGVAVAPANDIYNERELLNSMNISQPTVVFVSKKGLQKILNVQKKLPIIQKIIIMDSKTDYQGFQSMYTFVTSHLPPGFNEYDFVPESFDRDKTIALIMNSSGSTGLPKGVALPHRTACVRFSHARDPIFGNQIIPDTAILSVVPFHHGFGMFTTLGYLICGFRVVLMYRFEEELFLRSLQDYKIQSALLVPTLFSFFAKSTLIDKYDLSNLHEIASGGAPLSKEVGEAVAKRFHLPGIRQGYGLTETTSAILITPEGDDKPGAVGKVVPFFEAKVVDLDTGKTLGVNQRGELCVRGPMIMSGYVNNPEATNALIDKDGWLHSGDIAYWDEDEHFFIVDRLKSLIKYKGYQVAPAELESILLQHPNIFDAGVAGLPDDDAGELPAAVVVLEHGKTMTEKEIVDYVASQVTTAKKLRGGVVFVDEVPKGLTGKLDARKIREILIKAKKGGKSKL
Sequence of G-protein coupled receptor 55 (Q9Y2T6 whole entry): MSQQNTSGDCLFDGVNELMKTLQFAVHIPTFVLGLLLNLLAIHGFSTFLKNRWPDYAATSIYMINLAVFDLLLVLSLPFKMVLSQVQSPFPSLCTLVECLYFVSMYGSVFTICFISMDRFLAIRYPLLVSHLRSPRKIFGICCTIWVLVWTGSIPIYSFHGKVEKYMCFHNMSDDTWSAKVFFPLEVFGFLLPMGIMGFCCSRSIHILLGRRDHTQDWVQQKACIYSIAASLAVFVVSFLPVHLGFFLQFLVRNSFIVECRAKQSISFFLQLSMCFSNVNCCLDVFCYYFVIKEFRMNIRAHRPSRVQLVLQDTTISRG
Sequence of Glyceraldehyde-3-phosphate dehydrogenase (P04406 whole entry): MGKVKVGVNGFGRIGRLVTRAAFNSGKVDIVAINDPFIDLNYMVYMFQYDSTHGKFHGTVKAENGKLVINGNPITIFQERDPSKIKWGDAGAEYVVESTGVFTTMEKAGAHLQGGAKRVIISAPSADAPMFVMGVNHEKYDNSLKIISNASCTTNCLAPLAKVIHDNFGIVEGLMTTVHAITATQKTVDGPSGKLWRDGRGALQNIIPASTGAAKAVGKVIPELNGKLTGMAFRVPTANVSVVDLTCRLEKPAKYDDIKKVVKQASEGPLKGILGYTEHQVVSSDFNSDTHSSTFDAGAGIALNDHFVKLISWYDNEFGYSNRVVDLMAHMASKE
Sequence of Genome polyprotein (P29990 2492-3391 limits assumed): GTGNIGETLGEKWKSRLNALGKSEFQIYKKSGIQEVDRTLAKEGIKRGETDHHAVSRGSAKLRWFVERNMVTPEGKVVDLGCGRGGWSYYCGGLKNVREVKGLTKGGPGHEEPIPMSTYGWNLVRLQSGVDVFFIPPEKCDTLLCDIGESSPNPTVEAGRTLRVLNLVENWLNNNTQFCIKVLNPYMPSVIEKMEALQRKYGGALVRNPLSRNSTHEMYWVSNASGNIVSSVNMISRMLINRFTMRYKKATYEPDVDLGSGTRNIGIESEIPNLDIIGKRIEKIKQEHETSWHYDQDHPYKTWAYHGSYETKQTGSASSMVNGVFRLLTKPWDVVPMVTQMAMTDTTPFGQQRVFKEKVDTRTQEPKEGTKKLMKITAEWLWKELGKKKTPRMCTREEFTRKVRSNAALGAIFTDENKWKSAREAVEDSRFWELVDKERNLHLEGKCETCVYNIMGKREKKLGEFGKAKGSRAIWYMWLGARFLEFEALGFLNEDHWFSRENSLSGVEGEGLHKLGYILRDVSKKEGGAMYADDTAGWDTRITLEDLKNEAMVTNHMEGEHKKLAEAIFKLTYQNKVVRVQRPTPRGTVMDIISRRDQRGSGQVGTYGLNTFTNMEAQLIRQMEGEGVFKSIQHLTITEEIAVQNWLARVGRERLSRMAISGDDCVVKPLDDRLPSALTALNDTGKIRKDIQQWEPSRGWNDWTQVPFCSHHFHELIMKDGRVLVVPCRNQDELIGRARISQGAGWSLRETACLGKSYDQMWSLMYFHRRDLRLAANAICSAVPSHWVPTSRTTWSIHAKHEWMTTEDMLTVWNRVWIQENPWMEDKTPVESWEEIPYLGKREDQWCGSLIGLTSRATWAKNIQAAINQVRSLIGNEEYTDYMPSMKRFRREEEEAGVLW
Sequence of Beta-galactosidase (Q8VNN2 whole entry): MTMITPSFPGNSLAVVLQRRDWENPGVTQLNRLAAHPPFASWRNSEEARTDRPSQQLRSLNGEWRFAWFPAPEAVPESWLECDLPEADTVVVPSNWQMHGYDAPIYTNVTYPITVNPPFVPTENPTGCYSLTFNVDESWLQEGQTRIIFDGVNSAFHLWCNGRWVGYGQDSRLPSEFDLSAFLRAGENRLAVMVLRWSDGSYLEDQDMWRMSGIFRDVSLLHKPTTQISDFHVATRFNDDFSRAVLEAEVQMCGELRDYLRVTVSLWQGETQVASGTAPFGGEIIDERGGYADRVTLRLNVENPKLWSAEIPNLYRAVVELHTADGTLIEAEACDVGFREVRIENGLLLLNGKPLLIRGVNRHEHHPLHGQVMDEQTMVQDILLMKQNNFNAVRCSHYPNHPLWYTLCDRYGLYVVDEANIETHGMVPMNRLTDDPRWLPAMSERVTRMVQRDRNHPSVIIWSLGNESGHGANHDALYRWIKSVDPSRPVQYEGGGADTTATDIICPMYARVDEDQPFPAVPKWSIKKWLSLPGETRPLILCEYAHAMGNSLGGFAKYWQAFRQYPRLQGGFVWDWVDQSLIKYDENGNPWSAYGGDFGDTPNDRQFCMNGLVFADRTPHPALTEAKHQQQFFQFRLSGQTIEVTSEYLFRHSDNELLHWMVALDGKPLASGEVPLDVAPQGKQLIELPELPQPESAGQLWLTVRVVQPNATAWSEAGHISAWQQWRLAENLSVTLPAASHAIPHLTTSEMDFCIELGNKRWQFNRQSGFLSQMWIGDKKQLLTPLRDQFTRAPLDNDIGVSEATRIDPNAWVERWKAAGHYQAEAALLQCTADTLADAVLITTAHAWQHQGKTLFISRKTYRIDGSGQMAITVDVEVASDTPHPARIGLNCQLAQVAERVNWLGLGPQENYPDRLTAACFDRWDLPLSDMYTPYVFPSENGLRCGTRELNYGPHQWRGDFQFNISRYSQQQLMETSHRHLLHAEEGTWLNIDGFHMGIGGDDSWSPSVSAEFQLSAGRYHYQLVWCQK
Sequence of Large T antigen (P03070 whole entry): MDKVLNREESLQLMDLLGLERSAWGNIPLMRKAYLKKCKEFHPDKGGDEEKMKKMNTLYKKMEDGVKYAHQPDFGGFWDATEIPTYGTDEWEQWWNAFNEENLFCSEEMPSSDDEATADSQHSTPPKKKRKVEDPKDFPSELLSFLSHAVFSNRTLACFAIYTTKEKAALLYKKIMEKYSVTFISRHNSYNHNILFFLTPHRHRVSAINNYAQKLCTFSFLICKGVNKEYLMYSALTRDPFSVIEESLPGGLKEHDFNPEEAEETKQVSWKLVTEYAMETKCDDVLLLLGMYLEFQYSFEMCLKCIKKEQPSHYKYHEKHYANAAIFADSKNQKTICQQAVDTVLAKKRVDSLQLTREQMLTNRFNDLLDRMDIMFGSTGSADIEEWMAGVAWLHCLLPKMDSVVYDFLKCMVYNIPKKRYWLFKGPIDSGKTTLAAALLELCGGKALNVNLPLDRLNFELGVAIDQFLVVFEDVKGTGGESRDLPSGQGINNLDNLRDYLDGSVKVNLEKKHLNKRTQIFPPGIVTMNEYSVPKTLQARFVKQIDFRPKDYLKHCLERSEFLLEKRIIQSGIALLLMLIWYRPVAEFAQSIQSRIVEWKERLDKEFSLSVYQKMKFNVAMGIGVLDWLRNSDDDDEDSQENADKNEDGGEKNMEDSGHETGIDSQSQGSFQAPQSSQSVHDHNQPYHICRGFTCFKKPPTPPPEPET

For O=C(Nc1ccccc1Cl)c1ccccc1Oc1ccc(C(F)(F)F)cc1[N+](=O)[O-], the IC50 [1] was 3.31 µM (active) and the IC50 [2] was > 66.6 µM (inactive).
With CC(=O)c1ccc(OCC(O)CN2CCN(CCN3C(=O)c4cccc5cccc(c45)C3=O)CC2)cc1 (stereo not given) the IC50 [3] was 4.79 µM (active), the IC50 [4] was 4.17 µM (active) and the IC50 [5] was > 20 µM (inactive).
For O=C(O)c1cc(S(=O)(=O)Nc2ccc3oc(=O)sc3c2)ccc1O, the IC50 [6] was 33.3 µM (active) and the IC50 [7] was 70.9 µM (active).
For COc1ccc(-c2nnc(SCC(=O)Nc3cc(S(=O)(=O)N4CCCCC4)ccc3Cl)n2N)cc1, the IC50 [7] was 39.3 µM (active).
With COc1ccc(C(CC(=O)N2CCOCC2)c2c(OC)cc(OC)c3c(-c4ccccc4)cc(=O)oc23)cc1 (stereo not given) the IC50 [8] was 17 µM (active) and the IC50 [9] was 50.9 µM (active).
In the case of COc1ccc(Cc2nnc(N3C(=O)c4ccccc4C3=O)[nH]2)cc1, the IC50 [10] is reported as > 100 µM (inactive) and the IC50 [11] is reported as > 100 µM (not active).
For CCc1cccc(NC(=O)C[n+]2c3n(c4ccc(C(F)(F)F)cc42)CCCCC3)c1, the IC50 [8] was 2.69 µM (active) and the IC50 [9] was 5.22 µM (active).
In the case of CN1CCN(C(=O)CCN2C(=O)/C(=C/c3ccccc3Cl)SC2=S)CC1, the IC50 [3] is reported as 17.8 µM (active), the IC50 [4] is reported as > 20 µM (inactive) and the IC50 [5] is reported as > 20 µM (inactive).
With CCCc1cc(C(=O)Nc2nccs2)cs1 the EC50 [12] was > 50 µM (not active), the EC50 [13] was < 0.2 µM (active) and the IC50 [14] was > 100 µM (inactive). For the same compound, the EC50 [15] was > 260 µM (inconclusive).
For O=C(COc1ccccc1/C=C\c1nc(O)nc(O)c1[N+](=O)[O-])Nc1ccccc1, the IC50 [16] was 39.9 µM (active), the EC50 [17] was > 60 µM (not active) and the IC50 [7] was 42.9 µM (active). For the same compound, the EC50 [18] was > 60 µM (not active).
For COc1ccc(O)c(C(=O)CC(=O)c2ccc(F)cc2)c1, the EC50 [12] was > 50 µM (not active), the EC50 [13] was 0.35 µM (active) and the CC50 [19] was > 40 µM (active).
In the case of Cc1ccc(NS(=O)(=O)c2ccc3[nH]c(=O)c(=O)[nH]c3c2)cc1Cl, the IC50 [7] is reported as 41.9 µM (active).
In the case of CC(=O)Nc1nc(SCCCc2ccccc2)n[nH]1, the IC50 [10] is reported as 6 µM (active) and the IC50 [11] is reported as > 100 µM (not active).
In the case of COc1ccccc1NC(=O)CN1CCC(n2nnc3cc(F)ccc32)CC1, the IC50 [3] is reported as 15.4 µM (active), the IC50 [4] is reported as 17.8 µM (active) and the IC50 [5] is reported as > 20 µM (inactive).
For O=C(CCCOc1ccccc1)N1CCCCC1, the EC50 [12] was > 50 µM (not active), the EC50 [20] was 8.9 µM (active) and the EC50 [21] was 8.68 µM (active). The EC50 [13] was < 0.2 µM (active).
With COc1cc(C2Nn3c(nnc3-c3ccccc3OC)S2)ccc1O (stereo not given) the IC50 [22] was 3.57 µM (active) and the IC50 [23] was > 100 µM (inactive).
For CCN(CC)C(=O)c1ncn(C)c1C(=O)N(CC)CC, the IC50 [8] was 3.51 µM (active) and the IC50 [9] was 3.23 µM (active).
In the case of O=[N+]([O-])c1ccc(/C=N/n2c(S)nnc2-c2cccnc2)cc1, the IC50 [22] is reported as 2.3 µM (active) and the IC50 [23] is reported as > 100 µM (inactive).
In the case of O=C1OC(c2ccc(O)cc2)(c2ccc(O)cc2)c2ccccc21 [PHENOLPHTHALEIN], the IC50 [1] is reported as 6.67 µM (active).
